Data reported in patent publication US5512553A, “7-(substituted)-8-(substituted)-9-(substituted amino)-6-demethyl-6-deoxytetracyclines” (American Cyanamid Company, priority 1995, dated 1996).
Structures can show the parent of a compound that is named as a salt. Where two headings read alike, the source gives them in different places.

Columns and labels:
[1] = tested on: E. coli UBMS 88-1 (tetB); assay: microbe, parasite or virus in culture; type: cell-based; details: Escherichia coli, 18 h
Experimental: (§1) Method for In Vitro Antibacterial Evaluation (Table I)
(§2) The minimum inhibitory concentration (MIC), the lowest concentration of the antibiotic which inhibits growth of the test organism, is determined by the agar dilution method using Muller-Hinton II agar (Baltimore Biological Laboratories). An inoculum density of 1-5×10^5 CFU/ml and an antibiotic concentration (32-≤0.015 μg/ml) is used. The plates are incubated for 18 hours at 35° C. in a forced air incubator. The test organisms comprise strains sensitive to tetracycline and genetically defined strains that are resistant to tetracycline, due to inability to bind bacterial ribosomes (tetM).

[2] = tested on: S. aureus UBMS 88-5 (tetM); assay: microbe, parasite or virus in culture; type: cell-based; details: Staphylococcus aureus, 18 h
Experimental: as §1, §2

[3] = tested on: S. aureus UBMS 88-7 (tetK); assay: microbe, parasite or virus in culture; type: cell-based; details: Staphylococcus aureus, 18 h
Experimental: as §1, §2

[4] = tested on: S. aureus UBMS 90-1 (tetM); assay: microbe, parasite or virus in culture; type: cell-based; details: Staphylococcus aureus, 18 h
Experimental: as §1, §2

[5] = tested on: S. aureus UBMS 90-2 (tetM); assay: microbe, parasite or virus in culture; type: cell-based; details: Staphylococcus aureus, 18 h
Experimental: as §1, §2

[6] = tested on: E. coli ATCC 25922; assay: In vitro antibacterial evaluation, MIC by agar dilution; type: cell-based; details: Escherichia coli
Experimental: as §1, §2

[7] = tested on: E. coli UBMS 88-2 (sensitive); assay: as above; type: cell-based; details: Escherichia coli, 18 h
Experimental: as §1, §2

[8] = tested on: E. coli UBMS 89-2 (sensitive); assay: as above; type: cell-based; details: Escherichia coli, Muller-Hinton II agar, 18 hours at 35° C.
Experimental: as §1, §2

[9] = tested on: Enteroc. spp. 12201; assay: as above; type: cell-based
Experimental: as §1, §2

[10] = tested on: S. aureus ATCC 29213 (sensitive); assay: as above; type: cell-based; details: Staphylococcus aureus, ATCC29213; agar dilution, Muller-Hinton II agar, 18 hours at 35° C.; S. aureus ATCC 29213 (sensitive); read-out: MIC
Experimental: as §1, §2

[11] = tested on: S. aureus IVES 1983 (MP) (meth. resistant); assay: as above; type: cell-based; details: Staphylococcus aureus
Experimental: as §1, §2

[12] = tested on: S. aureus SMITH (MP) (sensitive); assay: as above; type: cell-based; details: Staphylococcus aureus; agar dilution, Muller-Hinton II agar, 18 hours at 35° C.; S. aureus SMITH (MP) (sensitive); read-out: MIC
Experimental: as §1, §2

[13] = tested on: S. aureus UBMS 88-4 (sensitive); assay: as above; type: cell-based; details: Staphylococcus aureus
Experimental: as §1, §2

[14] = tested on: S. aureus UBMS 90-3 (sensitive); assay: as above; type: cell-based; details: Staphylococcus aureus; agar dilution, Muller-Hinton II agar, 18 hours at 35° C.; S. aureus UBMS 90-3 (sensitive); read-out: MIC
Experimental: as §1, §2

[15] = tested on: S. faecal. ATCC 29212; assay: as above; type: cell-based
Experimental: as §1, §2

[16] = tested on: S30 extract from E. coli strain MRE 600 (tetracycline sensitive); assay: E. coli in vitro cell free protein translation system, Wild Type S30; type: biochemical; details: for % Inhibition Wild Type S30: 35S-methionine incorporation, 30 minutes at 37° C.
Excerpt: (§3) E. coli in Vitro protein Translation System (Table II)
(§4) An in vitro, cell free, protein translation system using extracts from E. coli strain MRE 600 (tetracycline sensitive) and a derivative of MRE 600 containing the tetM determinant has been developed based on literature methods J. M. Pratt, Coupled Transcription-translation in Prokaryotic Cell-free Systems, Transcription and Translation, a Practical Approach, (B. D. Hames and S. J. Higgins, eds) p. 179-209, IRL Press, Oxford-Washington, 1984!.
(§5) Using the system described above, the tetracycline compounds of the present invention are tested for their ability to inhibit protein synthesis in vitro. Briefly, each 10 μl reaction contains S30 extract (a whole extract) made from either tetracycline sensitive cells or an isogenic tetracycline resistant (tetM) strain, low molecular weight components necessary for transcription and translation (i.e., ATP and GTP), a mix of 19 amino acids (no methionine), ^35 S labeled methionine, DNA template (either pBR322 or pUC119), and either DMSO (control) or the novel tetracycline compound to be tested ("novel TC") dissolved in DMSO.
(§6) The reactions are incubated for 30 minutes at 37° C. Timing is initiated with the addition of the S30 extract, the last component to be added. After 30 minutes, 2.5 μl of the reaction is removed and mixed with 0.5 ml of 1N NaOH to destroy RNA and tRNA. Two to three ml of 25% trichloroacetic acid is added and the mixture incubated at room temperature for 15 minutes. The trichloroacetic acid precipitated material is collected on Whatman GF/C filters and washed with a solution of 10% trichloroacetic acid. The filters are dried and the retained radioactivity, representing incorporation of ^35 S-methionine into polypeptides, is counted using standard liquid scintillation methods.
(§7) The percent inhibition (P.I.) of protein synthesis is determined to be: [formula]

[17] = tested on: S30 extract from derivative of E. coli MRE 600 containing the tetM determinant; assay: E. coli in vitro cell free protein translation system, TetM S30; type: biochemical; details: cell-free extracts from strain MRE600 (tetM)
Excerpt: as §3, §4, §5, §6, §7

[18] = tested on: tetracycline sensitive and resistant Gram-positive and Gram-negative bacteria; assay: In vitro antibacterial activity, summary statements of the testing results; type: cell-based
Experimental: as §1, §2

[19] = tested on: E. coli UBMS 89-1 (tetM); assay: microbe, parasite or virus in culture; type: cell-based; details: Escherichia coli, 18 h
Experimental: as §1, §2

[20] = tested on: S. aureus IVES 2943 (meth. resistant); assay: In vitro antibacterial evaluation, MIC by agar dilution; type: cell-based; details: Staphylococcus aureus, 18 h
Experimental: as §1, §2

[21] = tested on: S. haemol. AVAH 88-3; assay: as above; type: cell-based; details: 18 h
Experimental: as §1, §2

[22] = tested on: Staphylococcus aureus strain Smith (tetracycline sensitive); assay: In vivo antibacterial evaluation, acute lethal infection in mice; details: 168 h, female mice CD-1, intraperitoneal challenge with S. aureus Smith, dosed subcutaneously or orally 30 minutes after infection, 7 day survival ratios
Experimental: In Vivo Antibacterial Evaluation (Table III)
The therapeutic effects of tetracyclines are determined against an acute lethal infection with Staphylococcus aureus strain Smith (tetracycline sensitive). Female, mice, strain CD-1 (Charles River Laboratories), 20±2 grams, are challenged by an intraperitoneal injection of sufficient bacteria (suspended in hog mucin) to kill non-treated controls within 24-48 hours. Antibacterial agents, contained in 0.5 ml of 0.2% aqueous agar, are administered subcutaneously or orally 30 minutes after infection. When an oral dosing schedule is used, animals are deprived of food for 5 hours before and 2 hours after infection. Five mice are treated at each dose level. The 7 day survival ratios from 3 separate tests are pooled for calculation of median effective dose (ED50).

| SMILES | MIC [1] [mg/L] | MIC [2] [mg/L] | MIC [3] [mg/L] | MIC [4] [mg/L] | MIC [5] [mg/L] | MIC [7] [mg/L] | MIC [8] [mg/L] | MIC [10] [mg/L] | MIC [12] [mg/L] | MIC [14] [mg/L] | also measured |
| --- | --- | --- | --- | --- | --- | --- | --- | --- | --- | --- | --- |
| CN(C)[C@@H]1C(O)=C(C(N)=O)C(=O)[C@@]2(O)C(O)=C3C(=O)c4c(cc(Cl)c(NC=O)c4O)CC3CC12 (stereo partly shown) [A, 8-Chloro-4-(dimethylamino)-9-(formylamino)-1,4,4a,5,5a,6,11,12a-octahydro-3,10,12,12a-tetrahydroxy-1,11-dioxo-2-naphthacenecarboxamide hydrochloride or sulfate] | 32 | 0.12 | 16 | 0.25 | 0.03 | 0.12 | 0.25 | < 0.015 | < 0.015 | < 0.015 | MIC ([6]; ATCC25922, agar dilution, Muller-Hinton II agar, 18 hours at 35° C., E. coli ATCC 25922, read-out: MIC): 0.12 mg/L; MIC ([9]; agar dilution, Muller-Hinton II agar, 18 hours at 35° C., Enteroc. spp. 12201, read-out: MIC): 0.5 mg/L; MIC ([11]; agar dilution, Muller-Hinton II agar, 18 hours at 35° C., S. aureus IVES 1983 (MP) (meth. resistant), read-out: MIC): 32 mg/L; MIC ([13]; agar dilution, Muller-Hinton II agar, 18 hours at 35° C., S. aureus UBMS 88-4 (sensitive), read-out: MIC): < 0.015 mg/L; MIC ([15]; agar dilution, Muller-Hinton II agar, 18 hours at 35° C., S. faecal. ATCC 29212, read-out: MIC): < 0.015 mg/L; % Inhibition Wild Type S30 ([16]; Conc. 0.3 mg/ml): 98%; % Inhibition Wild Type S30 ([16]; Conc. 1.0): 93%; inhibition of protein synthesis, in words ([16]; cell-free extracts from tetracycline susceptible strain MRE600): effectively inhibited; inhibition of protein synthesis, in words [17]: effectively inhibited; in vitro activity, in words ([18]; tetracycline resistant strains containing tetM (S. aureus UBMS 88-5, 90-1 and 90-2)): good in vitro activity; in vitro activity compared with minocycline, in words ([18]; tetracycline susceptible strains): equally as effective as minocycline |
| CN(C)c1c(Cl)cc(O)c2c1CC1CC3[C@H](N(C)C)C(O)=C(C(N)=O)C(=O)[C@@]3(O)C(O)=C1C2=O (stereo partly shown) [B, 8-Chloro-4,7-bis(dimethylamino)-1,4,4a,5-5a,6,11,12a-octahydro-3,10,12,12a-tetrahydroxy-1,11-dioxo-2-naphthacenecarboxamide sulfate] | > 32 | 0.5 | 0.5 | 0.05 | 0.5 | 8 | 16 | ≤ 0.015 | 0.06 | 0.06 | MIC [19]: > 32 mg/L; MIC ([6]; ATCC25922, 18 h): 8 mg/L; MIC ([9]; 18 h): 1 mg/L; MIC ([11]; 18 h): 1 mg/L; MIC [20]: 1 mg/L; MIC ([13]; 18 h): 0.03 mg/L; MIC ([15]; 18 h): 1 mg/L; MIC [21]: 0.25 mg/L; ED50 [22]: > 16 mg/kg |
